Laboratory results: publication PMC7614683, “A small molecule PI3Kα activator for cardioprotection and neuroregeneration” (Nature, 2023)

Target: T1, human p110β/p85α (PI3Kβ) (Homo sapiens, UniProt P42338)
T1 construct: Full-length human p110β/p85α and p110δ/p85α were cloned and expressed in a similar manner; Strep-tag followed by TEV protease site (N, cleaved yes); host or cells: Spodoptera frugiperda Sf9, baculovirus
Assay: ADP-Glo in vitro lipid kinase assay, PI3Kβ
Format: biochemical
Experimental: Full-length human p110β/p85α and p110δ/p85α were cloned and expressed in a similar manner. Briefly, 5 litres of Spodoptera frugiperda (Sf9) cell culture at a density of 1.0 x 10^6 cells/ml were co-infected with both a p85α-encoding virus and a virus encoding p110β/δ with an N-terminal Strep-tag followed by a tobacco etch virus (TEV) protease site (plasmid OP832 for p110β, plasmid OP833 for p110δ and plasmid of OP809 for p85α). After a 48 h infection at 27°C, cells were harvested and washed with PBS. Cell pellets were then resuspended in Lysis Buffer (20 mM Tris pH 8.0, 150 mM NaCl, 5% glycerol, 2 mM β-mercaptoethanol, 1 EDTA-free protease inhibitor tablet (Roche) per 50 ml of buffer) and sonicated ar 4°C for 7 min in 15 sec intervals followed by a 15 sec wait. […]
For re-screening of HTS hits and routine compound profiling, the reaction mixture contained 2 μl PI3K enzyme, 2 μl compound and/or pY and 2 μl of liposome substrate mixed with ATP. […] Luminescence was read using a Sense (Hidex) plate reader. […]
For characterisation of the effects of 1938 on in vitro PI3K enzymology, all reactions were performed at room temperature with 384 white-polystyrene plates (Corning #3574). […] Data was expressed as velocity (nmol of ADP generated/nmol of enzyme/sec). […] Luminescence was read using a PHERAstar® plate reader with software version 5.41, and analyses were performed using GraphPad Prism 8/9.

T1 sequence (P42338 whole entry): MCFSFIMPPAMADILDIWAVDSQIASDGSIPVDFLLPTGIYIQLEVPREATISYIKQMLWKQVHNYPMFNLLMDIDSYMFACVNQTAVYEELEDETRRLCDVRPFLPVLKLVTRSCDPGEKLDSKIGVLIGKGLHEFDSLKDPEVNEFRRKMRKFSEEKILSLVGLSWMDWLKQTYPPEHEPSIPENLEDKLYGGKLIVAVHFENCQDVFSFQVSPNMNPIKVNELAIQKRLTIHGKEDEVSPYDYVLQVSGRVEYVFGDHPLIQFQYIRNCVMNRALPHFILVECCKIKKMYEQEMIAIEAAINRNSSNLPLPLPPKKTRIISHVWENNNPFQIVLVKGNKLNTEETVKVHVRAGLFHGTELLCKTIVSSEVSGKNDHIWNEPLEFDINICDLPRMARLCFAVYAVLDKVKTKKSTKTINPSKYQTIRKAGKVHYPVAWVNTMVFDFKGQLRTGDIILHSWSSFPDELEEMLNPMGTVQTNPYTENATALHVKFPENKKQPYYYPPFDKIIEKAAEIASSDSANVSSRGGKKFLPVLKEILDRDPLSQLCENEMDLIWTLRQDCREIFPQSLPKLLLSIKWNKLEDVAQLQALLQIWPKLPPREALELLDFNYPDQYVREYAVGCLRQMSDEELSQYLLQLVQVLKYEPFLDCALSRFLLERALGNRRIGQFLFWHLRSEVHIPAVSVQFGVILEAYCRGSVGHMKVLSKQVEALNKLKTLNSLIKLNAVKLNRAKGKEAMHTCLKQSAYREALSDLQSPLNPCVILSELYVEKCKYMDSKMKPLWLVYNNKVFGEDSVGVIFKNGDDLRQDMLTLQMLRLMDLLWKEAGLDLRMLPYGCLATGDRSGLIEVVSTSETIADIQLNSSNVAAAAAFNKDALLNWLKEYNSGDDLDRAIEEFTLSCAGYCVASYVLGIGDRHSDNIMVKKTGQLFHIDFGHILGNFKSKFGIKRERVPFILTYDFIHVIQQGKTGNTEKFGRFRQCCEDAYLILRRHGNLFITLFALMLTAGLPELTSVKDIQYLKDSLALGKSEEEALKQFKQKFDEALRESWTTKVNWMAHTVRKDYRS
T1 sequence (P27986 whole entry partner): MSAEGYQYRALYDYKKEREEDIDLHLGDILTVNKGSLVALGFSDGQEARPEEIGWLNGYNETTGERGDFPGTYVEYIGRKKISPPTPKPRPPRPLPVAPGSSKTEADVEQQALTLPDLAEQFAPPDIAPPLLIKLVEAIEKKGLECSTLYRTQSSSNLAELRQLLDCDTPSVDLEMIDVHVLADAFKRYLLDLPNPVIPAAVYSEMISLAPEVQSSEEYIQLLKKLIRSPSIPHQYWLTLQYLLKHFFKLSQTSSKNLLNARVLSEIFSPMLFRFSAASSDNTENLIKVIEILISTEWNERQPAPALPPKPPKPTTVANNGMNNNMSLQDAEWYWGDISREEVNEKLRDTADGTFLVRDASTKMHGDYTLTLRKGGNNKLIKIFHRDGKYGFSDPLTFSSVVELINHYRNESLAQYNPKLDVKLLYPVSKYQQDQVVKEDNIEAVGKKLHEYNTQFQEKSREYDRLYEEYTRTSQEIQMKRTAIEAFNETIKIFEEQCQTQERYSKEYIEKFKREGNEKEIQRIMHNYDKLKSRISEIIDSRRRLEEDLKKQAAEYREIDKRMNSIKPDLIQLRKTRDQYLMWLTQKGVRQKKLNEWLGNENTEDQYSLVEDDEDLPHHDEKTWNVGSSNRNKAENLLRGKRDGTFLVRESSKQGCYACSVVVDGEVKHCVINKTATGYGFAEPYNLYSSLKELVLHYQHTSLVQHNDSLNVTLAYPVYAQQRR

CCN1CCN(c2ccc(Nc3cc(Nc4cccc5c4N(C(C)=O)CC5)ccn3)cc2)CC1 [Compound 1938]
activation of PI3Kβ: but not PI3Kβ or PI3Kδ
